# From patent EP1708721B1, “MYOCARDIAL PERFUSION IMAGING USING ADENOSINE RECEPTOR AGONISTS” (Gilead Sciences, Inc., priority 2004, dated 2005)
# What was measured:
# awake rats = assay: Example 5: sympathoexcitation, heart rate, blood pressure and plasma catecholamines after i.v. bolus; format: in vivo
# Method: The present study was carried out to determine whether CVT-3146, a selective A2A adenosine receptor agonist, causes sympathoexcitation. CVT-3146 (0.31µg/kg-50 µg/kg) was given as a rapid i.v. bolus to awake rats and heart rate (HR) and blood pressure (BP) were monitored. CVT-3146 caused an increase in BP and systolic pressure (SP) at lower doses while at higher doses there was a decrease in BP and SP. […] The increase in HR was evident at the lowest dose of CVT-3146 at which there was no appreciable decrease in BP. ZM241385 (30 µg/kg , N=5), an A2A receptor antagonist, attenuated the decrease in BP (CVT-3146: 14±3%, ZM: 1±1 %) and the increase in HR (CVT: 27±3%, ZM: 18±3%) caused by CVT-3146. Pretreatment with metoprolol (MET, 1 mg/kg, n=5), a beta-blocker, attenuated the increase in HR (CVT: 27±3%, MET: 15±2%), but had no effect on hypotension caused by CVT-3146. In the presence of hexamethonium (HEX, 10 mg/kg, n=5), a ganglionic blocker, the tachycardia was prevented (CVT: 27±3%, HEX: -1±2%), but BP was further reduced (CVT: -11±2%, HEX: -49±5%).
# humans = assay: Example 1: open label study, CBFv by Doppler flow wire after IV bolus in catheterization patients; format: in vivo; conditions: intracoronary (IC) injection of 18 µg
# Method: The purpose of this open label study was to determine the magnitude and duration of effect of CVT-3146 (10-500 µg) on CBFv in humans.
# METHODS: Patients undergoing a clinically indicated coronary catheterization with no more than a 70% stenosis in any coronary artery and no more than a 50% stenosis of the study vessel had CBFv determined by Doppler flow wire. Study subject were selected after measuring baseline and peak CBFv after an intracoronary (IC) injection of 18 µg of Ado. Twenty-three patients, who were identified as meeting the study criteria of having a peak to baseline CBFv ratio of ≥ 2.5 in response to Adenosine, received a rapid (≤ 10 sec) peripheral IV bolus of CVT-3146; Doppler signals were stable and interpretable over the time-course of the increase in CBFv in 17 patients.
# [1] = system: subjects (26 men, 9 women); assay: Example 6: stress/rest SPECT myocardial perfusion imaging, adenosine versus CVT-3146; format: in vivo, human; conditions: SPECT MPI, CVT-3146 400 or 500 mcg IV bolus, A infusion
# Method: To determine the ability of CVT-3146 to produce coronary hyperemia and accurately detect CAD, 35 subjects (26 men, 9 women; 67±10 years) underwent both A and CVT-3146 stress/rest MPI, with 10.0±9.1 days between studies. […] CVT-3146 [400 mcg (n=18), 500 mcg (n=17)] was administered as an IV bolus immediately followed by a saline flush, and then a Tc-99m radiopharmaceutical [sestamibi (n=34), tetrofosmin (n=1)]. SPECT images were uniformly processed, intermixed with control studies (normal and fixed-only defects), and interpreted by three observers in a blinded fashion using a 17-segment model. Quantitative analysis was also performed using 4D MSPECT. In addition to three separate readings, a consensus interpretation was performed and then a direct, same-screen comparison of A and CVT-3146 images undertaken to determine relative differences, using 5 regions per study.
# awake dogs = assay: Example 8: vasodilator effects in different vascular beds of chronically instrumented dogs; format: in vivo; conditions: 250 µg/kg
# Text: In this study the vasodilator effects of CVT-3146 were compared to those of ADO in different vascular beds in awake dogs. Dogs were chronically instrumented for measurements of the blood flow in coronary (CBF), mesenteric (MBF), hind limb (LBF), and renal (RBF) vascular beds, and hemodynamics.
# [2] = in the presence of hexamethonium 10 mg/kg, n=5
# [3] = pretreatment with metoprolol 1 mg/kg, n=5
compound,measurement,setting,value
Nc1nc(NCCc2ccc(O)cc2)nc2nc(-c3ccco3)nn12 [ZM241385],decrease in BP caused by CVT-3146,"awake rats; with ZM241385 30 µg/kg, N=5",1±1%
same,increase in HR caused by CVT-3146,"awake rats; with ZM241385 30 µg/kg, N=5",18±3%
Nc1ncnc2c1ncn2[C@@H]1O[C@H](CO)[C@@H](O)[C@H]1O [adenosine],peak to baseline ratio (CBFv),humans,3.2 ± 0.5
same,"summed scores following stress, quantitative methods of analysis",[1]; 4D MSPECT,13.7±1.5
same,"summed scores following stress, visual",[1]; 17-segment model,13.9±1.5
same,duration for CBF above 2-fold of the baseline,awake dogs,16 ± 3 s
C[N+](C)(C)CCCCCC[N+](C)(C)C [hexamethonium],BP (change) caused by CVT-3146,awake rats; [2],-49±5%
same,tachycardia (HR change) caused by CVT-3146,awake rats; [2],-1±2%
COCCc1ccc(OCC(O)CNC(C)C)cc1 (stereo not shown) [metoprolol],effect on hypotension caused by CVT-3146,awake rats; [3],no effect
same,increase in HR caused by CVT-3146,awake rats; [3],15±2%
